Source: patent US10287255B2, “Compounds as histone deacetylase 6 inhibitors and pharmaceutical compositions comprising the same” (CHONG KUN DANG PHARMACEUTICAL CORP., priority 2014, dated 2019)
pIC50: −log10 of the molar value.

Assays:
human recombinant HDAC1 = target: T1, human recombinant HDAC1 (Homo sapiens, UniProt Q13547); assay: HDAC1 enzyme activity inhibition assay (in vitro, fluorimetric); format: biochemical; details: human recombinant HDAC1, fluorimetric kit, 30° C. 60 minutes
T1 construct: purchased Enzo Life Science BML-SE456
Procedure, shortened: (§1)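 IC50 values derive from fluorescence (Ex 360, Em 460) after developer treatment (30 min) of reactions of recombinant human HDAC1 or HDAC6 with 10 μM Fluor de Lys-SIRT1 substrate (60 min, 30 °C). Compounds were serially diluted 5-fold; 0.3 μg enzyme was used for HDAC1, with HDAC6 tested identically.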

human recombinant HDAC6 = target: T2, human recombinant HDAC6 (Homo sapiens, UniProt Q9UBN7); assay: HDAC6 enzyme activity inhibition assay (in vitro, fluorimetric); format: biochemical; details: for HDAC6 selectivity (fold): HDAC6 selectivity over HDAC1; for pIC50: human recombinant HDAC6, fluorimetric kit, same protocol as HDAC1
T2 construct: purchased Calbiochem 382180
T2 sequence (Q9UBN7 1-1215): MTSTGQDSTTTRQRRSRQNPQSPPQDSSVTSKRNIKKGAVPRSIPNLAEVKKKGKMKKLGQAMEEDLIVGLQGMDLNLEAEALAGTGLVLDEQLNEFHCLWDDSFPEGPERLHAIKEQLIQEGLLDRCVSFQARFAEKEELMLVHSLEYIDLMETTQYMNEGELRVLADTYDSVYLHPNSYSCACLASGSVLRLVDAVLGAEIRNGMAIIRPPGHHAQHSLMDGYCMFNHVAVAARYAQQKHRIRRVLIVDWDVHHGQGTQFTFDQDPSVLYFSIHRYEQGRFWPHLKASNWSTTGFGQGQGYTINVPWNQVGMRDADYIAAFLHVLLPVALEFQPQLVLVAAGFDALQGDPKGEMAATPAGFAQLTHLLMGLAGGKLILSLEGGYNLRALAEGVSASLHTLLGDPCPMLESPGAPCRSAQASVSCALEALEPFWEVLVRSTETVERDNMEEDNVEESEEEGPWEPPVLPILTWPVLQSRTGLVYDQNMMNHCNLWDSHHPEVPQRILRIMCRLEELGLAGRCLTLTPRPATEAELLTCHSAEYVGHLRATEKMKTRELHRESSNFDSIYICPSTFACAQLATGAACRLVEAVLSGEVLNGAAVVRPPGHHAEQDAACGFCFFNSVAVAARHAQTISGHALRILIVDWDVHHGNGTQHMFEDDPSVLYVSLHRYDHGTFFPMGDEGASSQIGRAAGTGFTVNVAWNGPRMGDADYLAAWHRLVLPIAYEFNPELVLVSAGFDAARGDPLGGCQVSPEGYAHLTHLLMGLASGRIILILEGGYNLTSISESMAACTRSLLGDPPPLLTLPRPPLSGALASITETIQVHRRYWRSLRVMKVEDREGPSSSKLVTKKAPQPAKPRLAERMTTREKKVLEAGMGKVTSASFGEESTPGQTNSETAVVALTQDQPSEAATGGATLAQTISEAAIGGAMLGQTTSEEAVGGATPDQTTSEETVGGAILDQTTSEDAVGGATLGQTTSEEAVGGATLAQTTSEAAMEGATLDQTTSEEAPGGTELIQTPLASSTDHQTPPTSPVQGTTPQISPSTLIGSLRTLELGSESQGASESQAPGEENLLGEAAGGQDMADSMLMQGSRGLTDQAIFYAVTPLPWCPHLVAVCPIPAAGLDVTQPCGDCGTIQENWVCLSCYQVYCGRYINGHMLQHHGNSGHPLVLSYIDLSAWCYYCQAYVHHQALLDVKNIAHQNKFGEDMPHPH
Procedure, shortened: as §1

T1 sequence (Q13547 whole entry): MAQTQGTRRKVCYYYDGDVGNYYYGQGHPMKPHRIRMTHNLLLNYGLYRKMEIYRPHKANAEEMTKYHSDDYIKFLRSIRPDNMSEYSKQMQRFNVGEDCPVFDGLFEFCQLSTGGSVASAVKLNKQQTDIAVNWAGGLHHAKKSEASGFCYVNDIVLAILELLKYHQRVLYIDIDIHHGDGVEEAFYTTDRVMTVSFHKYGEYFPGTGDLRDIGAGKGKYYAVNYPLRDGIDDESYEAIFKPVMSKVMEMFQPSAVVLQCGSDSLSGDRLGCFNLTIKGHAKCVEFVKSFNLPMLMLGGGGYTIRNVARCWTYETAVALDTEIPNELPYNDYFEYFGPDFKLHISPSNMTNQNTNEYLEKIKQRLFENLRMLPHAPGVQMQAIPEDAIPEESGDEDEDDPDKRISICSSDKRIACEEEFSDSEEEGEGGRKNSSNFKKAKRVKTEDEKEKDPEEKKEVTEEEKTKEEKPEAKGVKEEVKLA

pIC50 (human recombinant HDAC1)	HDAC6 selectivity (fold) (human recombinant HDAC6)	pIC50 (human recombinant HDAC6)	SMILES
5.72	36 fold	7.28	C[C@@H]1CN(Cc2ccc(C(=O)NO)cc2)C[C@H](C)N1Cc1cccc(F)c1 [Compound 225, 4-(((3R,5S)-4-(3-fluorobenzyl)-3,5-dimethylpiperazin-1-yl)methyl)-N-hydroxybenzamide]
5.62	3 fold	6.16	COc1cccc(CNC(=O)N2C[C@@H](C)N(Cc3ccc(C(=O)NO)cc3)[C@@H](C)C2)c1 [Compound 230, (3R,5S)-4-(4-(hydroxycarbamoyl)benzyl)-N-(3-methoxybenzyl)-3,5-dimethylpiperazine-1-carboxamide]
5.82	2 fold	6.12	C[C@@H]1CN(C(=O)NCc2cccc(F)c2)C[C@H](C)N1Cc1ccc(C(=O)NO)cc1 [Compound 231, (3R,5S)-N-(3-fluorobenzyl)-4-(4-(hydroxycarbamoyl)benzyl)-3,5-dimethylpiperazine-1-carboxamide]
5.10	28 fold	6.54	C[C@@H]1CN(Cc2ccc(C(=O)NO)cc2)C[C@H](C)N1C(=O)NCc1cccc(F)c1 [Compound 232, (2S,6R)-N-(3-fluorobenzyl)-4-(4-(hydroxycarbamoyl)benzyl)-2,6-dimethylpiperazine-1-carboxamide]
5.62	24 fold	7.01	C[C@@H]1CN(Cc2ccc(C(=O)NO)cc2)C[C@H](C)N1C(=O)c1cccc(-c2ccco2)c1 [Compound 242, 4-(((3R,5S)-4-(3-(furan-2-yl)benzoyl)-3,5-dimethylpiperazin-1-yl)methyl)-N-hydroxybenzamide]
5.52	40 fold	7.13	C[C@@H]1CN(Cc2ccc(C(=O)NO)cc2)C[C@H](C)N1C(=O)c1cccc(-c2ccoc2)c1 [Compound 243, 4-(((3R,5S)-4-(3-(furan-3-yl)benzoyl)-3,5-dimethylpiperazin-1-yl)methyl)-N-hydroxybenzamide]
5.44	31 fold	6.94	C[C@@H]1CN(Cc2ccc(C(=O)NO)cc2)C[C@H](C)N1C(=O)c1cccc(-c2ccncc2)c1 [Compound 245, 4-(((3R,5S)-3,5-dimethyl-4-(3-(pyridin-4-yl)benzoyl)piperazin-1-yl)methyl)-N-hydroxybenzamide]
5.47	26 fold	6.89	C[C@@H]1CN(Cc2ccc(C(=O)NO)cc2)C[C@H](C)N1C(=O)c1cccc(-c2cccnc2)c1 [Compound 246, 4-(((3R,5S)-3,5-dimethyl-4-(3-(pyridin-3-yl)benzoyl)piperazin-1-yl)methyl)-N-hydroxybenzamide]
5.07	96 fold	7.05	C[C@@H]1CN(Cc2ccc(C(=O)NO)cc2)C[C@@H](C)N1Cc1ccccc1 [Compound 248, 4-(((3R,5R)-4-benzyl-3,5-dimethylpiperazin-1-yl)methyl)-N-hydroxybenzamide]
4.81	130 fold	6.92	C[C@@H]1CN(Cc2ccc(C(=O)NO)cc2)C[C@@H](C)N1C(=O)c1ccco1 [Compound 249, 4-(((3R,5R)-4-(furan-2-carbonyl)-3,5-dimethylpiperazin-1-yl)methyl)-N-hydroxybenzamide]

Further lines, the molecule ahead of its results:

SMILES	pIC50 (human recombinant HDAC1)	HDAC6 selectivity (fold) (human recombinant HDAC6)	pIC50 (human recombinant HDAC6)
C[C@@H]1CN(Cc2ccc(C(=O)NO)cc2)C[C@H](C)N1C(=O)Cc1cccc(C(F)(F)F)c1 [Compound 223, 4-(((3R,5S)-3,5-dimethyl-4-(2-(3-(trifluoromethyl)phenyl)acetyl)piperazin-1-yl)methyl)-N-hydroxybenzamide]	6.05	8 fold	6.93
C[C@@H]1CN(Cc2ccc(C(=O)NO)cc2)C[C@H](C)N1C(=O)Cc1cccc(Cl)c1 [Compound 224, 4-(((3R,5S)-4-(2-(3-chlorophenyl)acetyl)-3,5-dimethylpiperazin-1-yl)methyl)-N-hydroxybenzamide]	5.77	14 fold	6.92
C[C@@H]1CN(C(=O)Cc2cccc(Cl)c2)C[C@H](C)N1Cc1ccc(C(=O)NO)cc1 [Compound 233, 4-(((2S,6R)-4-(2-(3-chlorophenyl)acetyl)-2,6-dimethylpiperazin-1-yl)methyl)-N-hydroxybenzamide]	4.77	11 fold	5.83
C[C@@H]1CN(Cc2ccc(C(=O)NO)cc2)C[C@H](C)N1C(=O)Cc1cccc(-c2ccccc2)c1 [Compound 234, 4-(((3R,5S)-4-(2-([1,1′-biphenyl]-3-yl)acetyl)-3,5-dimethylpiperazin-1-yl)methyl)-N-hydroxybenzamide]	5.05	17 fold	6.29
C[C@@H]1CN(Cc2ccc(C(=O)NO)cc2)C[C@H](C)N1C(=O)c1cccc(C2=CCOCC2)c1 [Compound 244, 4-(((3R,5S)-4-(3-(3,6-dihydro-2H-pyran-4-yl)benzoyl)-3,5-dimethylpiperazin-1-yl)methyl)-N-hydroxybenzamide]	5.47	35 fold	7.01
C[C@@H]1CN(Cc2ccc(C(=O)NO)cc2)C[C@H](C)N1C(=O)c1cccc(C2=CCC(C)(C)CC2)c1 [Compound 247, 4-(((3R,5S)-4-(4′,4′-dimethyl-2′,3′,4′,5′-tetrahydro-[1,1′-biphenyl]-3-carbonyl)-3,5-dimethylpiperazin-1-yl)methyl)-N-hydroxybenzamide]	4.88	30 fold	6.36
C[C@@H]1CN(C(=O)Cc2cccc(-c3ccccc3)c2)C[C@H](C)N1Cc1ccc(C(=O)NO)cc1 [Compound 250, 4-(((2S,6R)-4-(2-([1,1′-biphenyl]-3-yl)acetyl)-2,6-dimethylpiperazin-1-yl)methyl)-N-hydroxybenzamide]	5.02	57 fold	6.77
C[C@@H]1CN(C(=O)Cc2cccc(-c3ccncc3)c2)C[C@H](C)N1Cc1ccc(C(=O)NO)cc1 [Compound 251, 4-(((2S,6R)-2,6-dimethyl-4-(2-(3-(pyridin-4-yl)phenyl)acetyl)piperazin-1-yl)methyl)-N-hydroxybenzamide]	4.86	57 fold	6.62
C[C@@H]1CN(C(=O)Cc2cccc(C3=CCOCC3)c2)C[C@H](C)N1Cc1ccc(C(=O)NO)cc1 [Compound 252, 4-(((2S,6R)-4-(2-(3-(3,6-dihydro-2H-pyran-4-yl)phenyl)acetyl)-2,6-dimethylpiperazin-1-yl)methyl)-N-hydroxybenzamide]	4.76	79 fold	6.66
C[C@@H]1CN(C(=O)Cc2cccc(C3=CCC(C)(C)CC3)c2)C[C@H](C)N1Cc1ccc(C(=O)NO)cc1 [Compound 253, 4-(((2S,6R)-4-(2-(4′,4′-dimethyl-2′,3′,4′,5′-tetrahydro-[1,1′-biphenyl]-3-yl)acetyl)-2,6-dimethylpiperazin-1-yl)methyl)-N-hydroxybenzamide]	4.65	15 fold	5.81
C[C@@H]1CN(Cc2ccc(C(=O)NO)cc2)C[C@H](C)N1Cc1cccc(-n2cccc2)c1 [Compound 255, 4-(((3R,5S)-4-(3-(1H-pyrrol-1-yl)benzyl)-3,5-dimethylpiperazin-1-yl)methyl)-N-hydroxybenzamide]	5.07	354 fold	7.62
C[C@@H]1CN(Cc2cccc(-n3cccc3)c2)C[C@H](C)N1Cc1ccc(C(=O)NO)cc1 [Compound 256, 4-(((2S,6R)-4-(3-(1H-pyrrol-1-yl)benzyl)-2,6-dimethylpiperazin-1-yl)methyl)-N-hydroxybenzamide]	5.34	15 fold	6.52
